A short description of series [1]: In vitro metabolic stability in mouse S9. The conditions noted are these: for metabolic stability of positive controls: S9 and microsomes, in-house limits. As to the method:
(§1) For metabolic stability samples, extractions (50 μl) were taken at each pre-determined time point and mixed with 300 μl of ice-cold methanol containing IS in a 1.5 ml centrifuge tube. Then, samples were vortexed for 2 min and centrifuged (17,950g) for 10 min. An aliquot (100 μl) of the clear supernatant was transferred into an autosampler vial and 2 μl was injected into the LC–MS/MS system.
Metabolic stability was assessed using mouse, rat and human liver microsomes, and mouse liver S9 fractions (XenoTech, LLC, Lenexa, KS, USA) were used for the in vitro assessment of phase I and II metabolism. Incubation with S9 fractions was performed in triplicate, at 2 μM SF2523 concentration as described in our previous report ([Aldhafiri et al., 2020]; [Bala et al., 2020]). The reaction was started by adding 2 μl of SF2523 at a final concentration of 2 μM. Serial samples (50 μl) were collected at selected time intervals and quenched with 300 μl of methanol spiked with 10 μl of IS (0.5 μg/ml). All of the samples were vortexed and centrifuged at 13,000g for 15 min, and the supernatant was collected and transferred to an autosampler vial and injected (2 μl) onto the LC–MS/MS system. Testosterone 7-hydroxycoumarin and diclofenac were used as positive controls to ensure that S9, microsomes and the incubation conditions were appropriate to conduct metabolism studies.
The S9 fraction and microsomal stability were expressed as the percentage of drug remaining at each time. The in vitro metabolic elimination rate constant was determined from the first-order plot of a natural logarithm of the area ratio vs. time. The slope of the linear regression equation was used to determine the elimination rate constant k (min^−1).

The nature of series [2]: Stability of SF2523 in mouse plasma under storage conditions. Type of series: in vitro ADME. As to the method:
Stability in mouse plasma was assessed in triplicate at LQC and HQC concentrations at room temperature (6 h, 25 ± 5°C), and after three freeze–thaw cycles (−80°C) and long-term storage (60 days at −80°C). Additionally, the 24 h autosampler stability of extracted samples (at 4°C) was determined.

Series [3] can be described thus: Gastrointestinal fluid stability (SGF, SIF, phosphate buffer). Format: physicochemical. The settings on record: 37°C. As to the method:
Simulated GIs were prepared according to United States Pharmacopoeia (USP) specifications. Briefly, SF2523 at 10 μM concentration was incubated with simulated gastric fluid (SGF). Simulated intestinal fluid (SIF) and phosphate buffer (100 mM, pH 7.4) were kept at 37°C in a shaking water bath, each in triplicate. Samples (100 μl) were collected at 0, 15, 30, 60 and 120 min. Immediately after sample collection, 5 vols of methanol containing IS were added and samples were prepared for analysis. Stability was determined as the percentage of parent compound detected at each time point relative to the concentration at 0 min in buffer (100%) ([Wang et al., 2015]).

A short description of series [4]: Blood-to-plasma ratio in mouse blood. Type of series: in vitro ADME. As to the method: At different time points (0, 30 and 60 min) aliquots (50 μl) were collected for blood analysis, and an additional sample (120 μl) was transferred to a microcentrifuge tube and centrifuged at 4,000g for 10 min at 4°C to separate 50 μl plasma for analysis. The whole blood and plasma samples were further processed by SPE as described above. The analyte peak area ratios were used to calculate the blood-to-plasma (B/P) ratio using Equation (4).
(4) ∕PBration=Analyte concentration in whole blood/Analyte concentration in plasma

Series [5] in a line: Plasma protein binding by rapid equilibrium dialysis. The conditions noted are these: mouse plasma, mean, n = 3. Type of series: in vitro ADME, mouse. As to the method:
(§2) The sample contained mouse plasma spiked with 1 or 10 μM SF2523 and was added to the sample chamber. The rapid equilibrium dialysis kit top was then sealed and incubated at 37°C on an orbital shaker at 100 rpm for 5 h.
(§3) At pre-determined times, aliquots (40 μl) were removed from the sample, and buffer chambers and mixed with an equal volume of buffer or blank plasma, respectively. The samples were further processed by SPE as described above and analyzed by LC–MS/MS. The stability, equilibrium, device recovery and PPB were calculated using the following equations ([Lindup & Orme, 1981]): (5) %Remaining at5h=[…]/Concentration0h×100 (6) %Equilibrium=Concentrationreceiver cell/Concentrationdonor cell×100 (7) %Device Recovery=Concentrationreceiver cell+Concentrationdonor cell/Concentration0h×100 (8) %Bound=Concentrationdonor cell−Conentrationreceiver cell/Concentrationdonor cell×100
(In general: In equilibrium dialysis free small molecules cross a membrane that holds back macromolecules.)

Series [6] has as its system mouse plasma proteins. The description is as above. Type of series: in vitro ADME. As to the method: as §2, §3
Series [7] in a line: In vitro metabolic stability in human S9. The settings on record: S9 fraction; human S9, 2 μM; read-out: in vitro t1/2. Format: in vitro ADME.
Series [8] can be described thus: In vitro metabolic stability in mouse liver microsomes. Type of series: in vitro ADME. The settings on record: read-out: in vitro t1/2. As to the method: as §1
(§4) Metabolic stability was assessed using mouse, rat and human liver microsomes, and mouse liver S9 fractions (XenoTech, LLC, Lenexa, KS, USA) were used for the in vitro assessment of phase I and II metabolism. Incubation with S9 fractions was performed in triplicate, at 2 μM SF2523 concentration as described in our previous report ([Aldhafiri et al., 2020]; [Bala et al., 2020]). The reaction was started by adding 2 μl of SF2523 at a final concentration of 2 μM. Serial samples (50 μl) were collected at selected time intervals and quenched with 300 μl of methanol spiked with 10 μl of IS (0.5 μg/ml). […]
(§5) The S9 fraction and microsomal stability were expressed as the percentage of drug remaining at each time. The in vitro metabolic elimination rate constant was determined from the first-order plot of a natural logarithm of the area ratio vs. time. […]
A general note: Liver microsomes are a subcellular fraction often used to study metabolism.

A short description of series [9]: In vitro metabolic stability in human liver microsomes. Format: in vitro ADME. The settings on record: read-out: in vitro t1/2. As to the method:
as §1, §4, §5

Series [10] is described as follows: Metabolite identification in mouse S9 fraction. Format: in vitro ADME. The settings on record: phase I and II, 35 min gradient LC–MS/MS. As to the method:
For metabolite identification, mass shift analyses were performed using the same LC–MS/MS system. […] The parent drug MS/MS spectrum was used as a template model for structure identification and assuming that the fragmentation pattern of the parent drug from the production spectrum was used to deduce the structures of the metabolites ([Francis et al., 1999]). The data acquisition for the metabolite identification study was conducted using Labsolution software (Shimadzu Scientific Instruments, Columbia, MD, USA, version 5.8).

Series [11] can be described thus: Stability of SF2523 in mouse plasma under storage conditions. Format: in vitro ADME. The settings on record: nominal 200 ng/ml, mean ± SD, n = 3, read-out: Stability recovery, Accuracy (%).

In the case of `O=c1ccc2ccc(O)cc2o1` [7-hydroxycoumarin], the “metabolic stability of positive controls” value in [1] is listed as “within acceptable in-house limits”.

`O=c1cc(N2CCOCC2)oc2c(-c3ccc4c(c3)OCCO4)csc12` [SF2523]: in [2] (mouse plasma, Bench-top stability for 8 h at (21°C, 6 h), nominal 0.3 ng/ml, mean ± SD, n = 3, read-out: Stability recovery, Accuracy (%)), the recovery at 6 h, 0.3 ng/ml turned out to be 95.8 ± 4.03%. The recovery at 6 h, 375 ng/ml in [2] (mouse plasma, Bench-top stability for 8 h at (21°C, 6 h), nominal 375 ng/ml, mean ± SD, n = 3, read-out: Stability recovery, Accuracy (%)) was found to be 111.2 ± 0.21%. In addition, the recovery at 60 days, 0.3 ng/ml in series [2] (mouse plasma, Long-term stability (60 days, −80°C), nominal 0.3 ng/ml, mean ± SD, n = 3, read-out: Stability recovery, Accuracy (%)) amounted to 103 ± 2.62%. Also, the recovery at 60 days, 375 ng/ml in series [2] (mouse plasma, Long-term stability (60 days, −80°C), nominal 375 ng/ml, mean ± SD, n = 3, read-out: Stability recovery, Accuracy (%)) amounted to 97.25 ± 0.35%. In [2] (mouse plasma, Three freeze-thaw cycles (−80°C to room temperature), nominal 0.3 ng/ml, mean ± SD, n = 3, read-out: Stability recovery, Accuracy (%)), the recovery at 0.3 ng/ml worked out at 92.9 ± 12.3%. The recovery at 375 ng/ml in [2] (mouse plasma, Three freeze-thaw cycles (−80°C to room temperature), nominal 375 ng/ml, mean ± SD, n = 3, read-out: Stability recovery, Accuracy (%)) was 113.7 ± 0.14%. Moreover, the recovery at 24 h, 0.3 ng/ml in [2] (mouse, extracted plasma samples, Autosampler stability (4°C, 24 h), nominal 0.3 ng/ml, mean ± SD, n = 3, read-out: Stability recovery, Accuracy (%)) was 105 ± 5.16%. For the same compound, in series [2] (mouse, extracted plasma samples, Autosampler stability (4°C, 24 h), nominal 375 ng/ml, mean ± SD, n = 3, read-out: Stability recovery, Accuracy (%)), the recovery at 24 h, 375 ng/ml was 103 ± 1.13%. Also, the parent drug remaining in series [2] (under a variety of storage conditions) is > 90%. Also, the parent remaining in series [3] (phosphate buffer pH 7.4, 10 μM, after 2 h) is > 90%; in [3] (simulated gastric fluid (SGF), pH 1.2, 10 μM, after 1 h), > 90%; in series [3] (simulated intestinal fluid (SIF), pH 6.8, 10 μM, after 2 h), > 90%. For the same compound, the B/P is on record as 0.85 in series [4] (At 0.1 μg/ml, time point 0 min); 0.98 in series [4] (At 0.1 μg/ml, time point 30 min); 0.83 in [4] (At 0.1 μg/ml, time point 60 min); 0.85 in series [4] (At 1 μg/ml, time point 0 min); 0.93 in series [4] (At 1 μg/ml, time point 30 min); 0.93 in series [4] (At 1 μg/ml, time point 60 min). Moreover, in series [4] (whole blood, 0.1 μg/ml, overall value, read-out: blood-to-plasma ratio (B/P)), the blood plasma ratio at 0.1 μg/ml was 0.88. Further, the blood plasma ratio at 1 μg/ml in series [4] (whole blood, 1 μg/ml, overall value, read-out: blood-to-plasma ratio (B/P)) was 0.9. Besides, the fraction unbound at 5 h, 1 µM in series [5] (at 1 µM, read-out: Percentage plasma protein bound (converted)) is 0.0418. Moreover, the fraction unbound at 5 h, 10 µM in series [5] (at 10 µM, read-out: Percentage plasma protein bound (converted)) is 0.0327. The recovery at 5 h in [5] (mouse, mouse plasma in rapid equilibrium dialysis device, rapid equilibrium dialysis device, read-out: Percentage device recovery) was > 90%. In addition, the “Percentage remaining at 5 h (stability)” value in series [6] (mouse plasma, 37°C, 5 h incubation, mean, n = 3) is given as 99.06%. Also, the “bound to mouse plasma proteins” value in [6] (mouse plasma, both tested concentrations) is > 95%. Also, the Percentage device recovery in [6] (rapid equilibrium dialysis device, mouse plasma, mean, n = 3) is given as 98.58%. Further, the half-life at 2 μM was < 2 min in series [1] (mouse, liver S9 fraction); < 2 min in series [7]; < 2 min in [8]; < 2 min in series [9]. In series [10], the “number of metabolites identified” value was “Seven”. Also, the recovery at 6 h, 200 ng/ml in series [11] (mouse plasma, Bench-top stability for 8 h at (21°C, 6 h)) amounted to 107 ± 4.5%. Besides, the recovery at 60 days, 200 ng/ml in [11] (mouse plasma, Long-term stability (60 days, −80°C)) is 103 ± 11.2%. Further, the recovery at 200 ng/ml in series [11] (mouse plasma, Three freeze-thaw cycles (−80°C to room temperature)) is 101 ± 5%. Besides, the recovery at 24 h, 200 ng/ml in [11] (mouse, extracted plasma samples, Autosampler stability (4°C, 24 h)) is 101 ± 1.77%.

For `O=C(O)Cc1ccccc1Nc1c(Cl)cccc1Cl` [diclofenac], the “metabolic stability of positive controls” value in series [1] is reported as “within acceptable in-house limits”.

In the case of `CC(C)NCC(O)COc1cccc2ccccc12` (stereo not drawn) [propranolol, reference compound], the “plasma protein binding of positive control drugs” value in series [6] (compared with limits reported in the literature (Barber et al., 1978)) is on record as “within the acceptable limits”.

`C[C@]12CC[C@H]3[C@@H](CCC4=CC(=O)CC[C@@]43C)[C@@H]1CC[C@@H]2O` [testosterone]: the “metabolic stability of positive controls” value in series [1] was “within acceptable in-house limits”.

The values above are taken from article PMC13492205, “LC–MS/MS method for the quantitation of a dual PI3K/BRD4 inhibitor SF2523 in mouse plasma: Application to plasma protein binding and metabolism studies” (Biomedical chromatography : BMC, 2023).
